Where two headings read alike, the source gives them in different places.

In data set [1] the target is Lactobacillus plantarum phosphoketolase. Particulars: cited from earlier work.
Data set [2] relates to Bifidobacterium longum BB536 phosphoketolase. Particulars: Grill et al. (1995), cited from earlier work.
Data set [3] concerns Lactobacillus paraplantarum C7 phosphoketolase. The settings on record: Jeong et al. (2007), cited from earlier work.
Data set [4] has as its target T1, Bifidobacterium longum phosphoketolase (B. longum PKL), SEQ ID NO: 4 (encoded by SEQ ID NO:3) (Bifidobacterium longum, UniProt A0ACD7USP0).
T1 sequence (A0ACD7USP0 1-825): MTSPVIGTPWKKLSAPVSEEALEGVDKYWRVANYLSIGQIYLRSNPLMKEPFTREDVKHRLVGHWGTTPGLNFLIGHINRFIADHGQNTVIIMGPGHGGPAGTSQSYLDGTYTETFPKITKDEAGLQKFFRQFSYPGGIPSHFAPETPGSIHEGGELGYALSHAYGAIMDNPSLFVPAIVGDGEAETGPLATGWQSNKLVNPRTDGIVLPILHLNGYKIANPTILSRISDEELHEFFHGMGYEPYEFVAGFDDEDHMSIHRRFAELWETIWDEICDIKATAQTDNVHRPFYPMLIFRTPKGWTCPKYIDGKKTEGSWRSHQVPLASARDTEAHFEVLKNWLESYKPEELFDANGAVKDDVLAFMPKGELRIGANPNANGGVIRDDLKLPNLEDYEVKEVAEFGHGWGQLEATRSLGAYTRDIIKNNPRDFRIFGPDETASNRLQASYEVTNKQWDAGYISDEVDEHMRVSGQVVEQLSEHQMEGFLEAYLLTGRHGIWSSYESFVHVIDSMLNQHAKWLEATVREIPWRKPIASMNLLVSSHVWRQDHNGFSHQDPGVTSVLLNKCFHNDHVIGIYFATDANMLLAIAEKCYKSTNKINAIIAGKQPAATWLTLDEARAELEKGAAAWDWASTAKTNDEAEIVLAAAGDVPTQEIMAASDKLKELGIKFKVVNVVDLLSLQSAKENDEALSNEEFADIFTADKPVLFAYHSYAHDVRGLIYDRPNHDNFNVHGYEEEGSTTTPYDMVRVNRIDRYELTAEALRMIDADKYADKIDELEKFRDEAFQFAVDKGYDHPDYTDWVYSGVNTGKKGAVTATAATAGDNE
The settings on record: 37° C., pH 6, saturating Pi (20 mM), enzyme 0.25 μM, time measured 60.

The subject of data set [5] is Bifidobacterium animalis ATCC 25527 phosphoketolase. Particulars: Grill et al. (1995), cited from earlier work.
The test system of data set [6] is Leuconostoc oenos phosphoketolase. The settings on record: Veiga-da-Cunha et al. (1993), cited from earlier work.
Data set [7] has as its system Bifidobacterium breve phosphoketolase. Particulars: cited from earlier work.
Data set [8] relates to Bifidobacterium lactis phosphoketolase. The settings on record: Meile et al. (2001), cited from earlier work.
Data set [9] concerns Bifidobacterium globosum ATCC 25864 phosphoketolase. The settings on record: Grill et al. (1995), cited from earlier work.
The test system of data set [10] is Bifidobacterium dentium ATCC27534 phosphoketolase. The settings on record: Grill et al. (1995), cited from earlier work.
Data set [11] relates to Enterococcus gallinarum phosphoketolase (E. gallinarum PKL), encoded by SEQ ID NO:17. Put plainly: Kinetic analysis of purified E. gallinarum phosphoketolase (ferric hydroxamate assay, AcP formation). The data set is classed as biochemical. On the procedure:
The amino acid sequence of Enterococcus gallinarum PKL was obtained from GeneBank and was processed in GeneArt optimization software for optimized expression in E. coli. Two base pairs were added in front of the PKL gene to form a NcoI site and a Sad site was inserted just after the stop codon. The synthesized PKL gene was cloned into GeneArt kanamycin-resistant cloning plasmid. The E. gallinarum PKL gene (SEQ ID NO:17) was then subcloned into a BspHI/SacI-digested pTrcHis2B vector (Life Technologies, Carlsbad, Calif.) to form plasmid pCMP1321.
Cells were grown in LB medium with 50 ug/ml carbenecillin at 37 C prior to induction. […] For purification, E. gallinarum PKL cell pellets were resuspended in 50 mM MES pH 6.0, 50 mM NaCL, 0.5 mM AEBSF, 0.1 mg/ml DNaseI. […] Clarified lysate containing PKL from E. gallinarum was loaded onto a DEAE HiTrap FF column equilibrated in 50 mM MES, 50 mM NaCl, pH 6 and eluted with a gradient to 50 mM MES, 1M NaCl, pH 6. The resulting fractions were analyzed by SDS-PAGE. Fractions containing PKL were pooled and desalted using a G25 desalting column into 50 mM MES, 50 mM NaCL pH 6.0. Further purification was achieved using a MonoQ 10/100 GL column equilibrated in 50 mM MES, 50 mM NaCL, pH 6 with a salt gradient to 1M NaCl. Fractions containing PKL were pooled and analyzed by SDS PAGE, quantitation was achieved using A280 a molar extinction coefficient of 136980 determined by Vector NTI.
Time points were taken at various intervals. […] An AcP standard curve ranging between 12.5 and 0.2 mM was generated for quantitation.

Substrate in data set [12]: O=P(O)(O)OC[C@H]1OC(O)(CO)[C@@H](O)[C@@H]1O
Put plainly: purified protein, by the assay type. Particulars: other: 37° C., pH 6, saturating Pi (20 mM), enzyme 0.25 μM, time measured 60.

The mark [13] stands for this setting: 37° C., pH 6, saturating Pi (20 mM), enzyme 0.5 μM, time measured 30.

Take `O=C[C@H](O)[C@H](O)COP(=O)(O)O` [E4P, erythrose 4-phosphate]: the Ki is 8 mM in data set [1] (for F6P as a substrate, read-out: Kis^E4P) and 4.4 mM in data set [1] (for F6P as a substrate, read-out: Kll^E4P).
For orientation: kcat means the maximal rate divided by the concentration of active sites. One may read the Vmax as the top rate of the reaction or transport when substrate is in excess. Turning to `O=P(O)(O)OC[C@H]1OC(O)(CO)[C@@H](O)[C@@H]1O` (stereo partly drawn) [F6P, fructose 6-phosphate], the “kcat (F6P)” value in data set [2] is reported as “kcat (F6P) = 39 s^−1”; in data set [3] it was “kcat(F6P) = 738 s^−1”; in data set [5] it was “kcat (F6P) = 33 s^−1”; in data set [6] it was “kcat (F6P) = 0.2 s−1”; in data set [1] (Yevenes and Frey (2008)), “kcat(F6P) = 2.7 s^−1”; in [7] (Suzuki et al. (2010)), “kcat (F6P) = 22.4 s^−1”. Further, the “kcat (F6P)” value was “kcat(F6P) = 8 s^−1” in data set [8], “kcat (F6P) = 40 s^−1” in [9] and “kcat (F6P) = 33 s^−1” in data set [10]. The Km in data set [2] (read-out: Km(F6P)) is 26 mM; in data set [3] (read-out: Km(F6P)), 5.1 mM; in data set [5] (read-out: Km(F6P)), 11.5 mM; in data set [6] (read-out: Km(F6P)), 22 mM; in data set [1] (read-out: Km(F6P), Yevenes and Frey (2008)), 24 mM; in [7] (read-out: Km(F6P), Suzuki et al. (2010)), 9.7 mM. For the same molecule, the Km in [8] (read-out: Km(F6P)) is 10 mM; in data set [9] (read-out: Km(F6P)) it was 12.5 mM; in [10] (read-out: Km(F6P)), 23 mM; in data set [11] (setting [13]) it was 2.86 mM. Also, the kcat in data set [4] amounted to 16.6 s⁻¹; in [11] (setting [13]), 1.4 s⁻¹; in data set [11] (saturating Pi), 1.4 s⁻¹. The maximum rate (Vmax) in data set [11] (setting [13]) amounted to 0.71 µM/s.
In the case of `O=P(O)(O)O` [Pi, inorganic phosphate], the Km in data set [1] (for F6P as a substrate, read-out: Km(Pi)) is 2.9 mM; in data set [1] (for X5P as a substrate, read-out: Km(Pi)), 7.5 mM; in data set [7] (for F6P as a substrate, read-out: KmPi), 1.2 mM.
As to `O=C(CO)[C@@H](O)[C@H](O)COP(=O)(O)O` [X5P, xylulose 5-phosphate], the “kcat(X5P)” value in data set [6] is listed as “kcat (X5P) = 3.5 s^−1”; in [1] (Yevenes and Frey (2008)), “kcat(X5P) = 6.1 s^−1”; in [7] (Suzuki et al. (2010)) it was “kcat (X5P) = 44.8 s^−1”; in data set [8], “kcat(X5P) = 42 s^−1”. Besides, the Km was 1.6 mM in [6] (read-out: Km(X5P)); 3.6 mM in [1] (Yevenes and Frey (2008), read-out: Km(X5P)); 55 mM in [8] (read-out: Km(X5P)); 5.81 mM in data set [11] (setting [13]). The Vmax in data set [11] (setting [13]) was 2.18 µM/s. Also, the kcat in data set [11] (setting [13]) and in data set [11] (saturating Pi) was 4.4 s⁻¹ throughout.

B1: Bifidobacterium longum phosphoketolase (B. longum PKL), SEQ ID NO: 4 (encoded by SEQ ID NO:3) (Bifidobacterium longum subsp. infantis ATCC 15697 = JCM 1222 = … (protein)
chain: T1 sequence (A0ACD7USP0 1-825)
For the molecule B1, in [12], the Km is 21.16 mM, the maximum rate (Vmax) was found to be 265 µM/min and the kcat came to 16.6 s⁻¹.

Source of the values: patent publication US10113185B2, “Utilization of phosphoketolase in the production of mevalonate, isoprenoid precursors, and isoprene” (Danisco US Inc., priority 2011, dated 2018).
